In patent US6541500B1, “Fungicide mixture” (BASF Aktiengesellschaft, priority 1998, dated 2003):

Tested on: mildew of wheat (Erysiphe graminis forma specialis tritici)
Test: Action against mildew of wheat (wheat seedlings cv. Kanzler, protective spray)
Type: in vivo
Conditions: single active ingredient, wheat leaves, 7 days after inoculation
Procedure: The active compounds, separately or together, are formulated as a 10% strength emulsion in a mixture of 70% by weight of cyclohexanone, 20% by weight of Nekanil® LN (Lutensol® AP6, wetting agent having emulsifying and dispersing action based on ethoxylated alkylphenols) and 10% by weight of Emulphor® EL (Emulan® EL, emulsifier based on ethoxylated fatty alcohols) and diluted with water to the desired concentration.
Evaluation is carried out by determining the infected leaf areas in percent. These percentages are converted into efficacies. The expected efficacies of the mixtures of the active compounds are determined using Colby's formula [R. S. Colby, Weeds 15, 20-22 (1967)] and compared with the observed efficacies.
At an efficacy of 0, the infection level of the treated plants corresponds to that of the untreated control plants; at an efficacy of 100, the treated plants are not infected.
Leaves of wheat seedlings of the cultivar “Kanzler”, grown in pots, were sprayed to run-off point with an aqueous formulation of active ingredient which had been prepared using a stock solution comprising 10% of active ingredient, 63% of cyclohexanone and 27% of emulsifier, and 24 h after the spraycoating had dried on the leaves were dusted with spores of mildew of wheat (Erysiphe graminis forma specialis tritici). The test plants were subsequently placed in climatized chambers at 20-24° C. and 60-90% relative atmospheric humidity for 7 days. The extent of the development of the disease on the leaves was then evaluated visually.
The visually determined values for the percentage of diseased leaf area were converted into efficacies in % of the untreated control. An efficacy of 0 means the same disease level as in the untreated control, an efficacy of 100 means a disease level of 0%. The expected efficacies for the active ingredient combinations were determined using Colby's formula (Colby, S. R. “Calculating synergistic and antagonistic responses of herbicide combinations”, Weeds, 15, pp. 20-22, 1967) and compared with the observed efficacies. […]

Fc1ccc(Oc2ccnc3cc(Cl)cc(Cl)c23)cc1 [I.78, quinoxyfen]
Efficacy in % of the untreated control (conc. 0.06 ppm): 0% | Efficacy in % of the untreated control (conc. 0.25 ppm): 0% | Efficacy in % of the untreated control (conc. 1 ppm): 33%
